{"source": "patent US5283246A", "about": "“Trimetazidine compounds” (Adir et Compagnie, priority 1991, dated 1994)", "key": {"[1]": {"test_system": "cardiac cells", "assay": "Oxidative necrosis of cardiac cells induced by hypoxanthine/xanthine-oxidase (XO + HX)", "format": "cell-based, rat (newborn)", "settings": "Rattus norvegicus, 4 h", "description": "The cardiac cells of newborn rats are used between the 5th and 6th days after placing in culture. Oxidative necrosis is induced by the free radical-producing enzymatic system hypoxanthine (HX, 1 -mm) and xanthineoxidase (XO, 10 mU/ml). The necrosis is evaluated 4 hours after the addition of XO/HX by measuring by spectrophotometry the cytosolic α-hydroxybutyrate dehydrogenase (a-HBDH) activity liberated in the supernatant. The cells are treated with the test compounds 16 hours and 1 hour before the beginning of the experiment after renewing the medium. At the beginning of the experiment, the treatment is carried out again one last time.\nTable 3 lists the necrosis indices of cardiac cells induced by the hypoxanthine/xanthine-oxidase system alone or in the presence of increasing concentrations of the compounds of the invention."}, "[2]": {"test_system": "isolated hearts of rats", "assay": "Hypoxia reoxygenation on the isolated heart of a rat", "design": "species or system Wistar rat", "description": "The hearts of male Wistar rats (325-375 g--Charles River breed) anaesthetized by the intraperitoneal route with sodium pentobarbital (30 mg/kg) are removed after the injection of heparin i.v. (1 ml/kg) and rapidly perfused by the Langendorff technique at a constant pressure of 76 mmhg and stimulated electrically at 5 Hz. The isovolumetric contractions are recorded by way of a small polyethylene balloon connected to a pressure sensor (P23-Gould) introduced into the left ventricle and inflated so as to obtain a diastolic pressure of approximately 10 mmhg. The physiological solution used, maintained at 37° C., has the following composition (mM): NaCl 118; KCl 4.7; KH2 PO4 1.2; MgCl2 1.2; CaCl2 1.3; NaHCO3 25; glucose 8, pH 7.4/95% O2 +5% CO2.\nAfter a period of stabilization of from 15 to 30 minutes, the heart is subjected to hypoxia for 60 minutes (effected with 95% N2 and 5% CO2; PO2 <40 mmHg), followed by reoxygenation for 30 minutes; the compound is added to the incubation medium 15 minutes before and during the period of hypoxia."}, "[3]": {"test_system": "pigs", "assay": "Myocardial ischaemia induced by coronary stenosis in pigs", "format": "in vivo, Large White pig", "description": "The study is carried out on \"Large White\" pigs of both sexes aged 3 months and weighing 21 to 26 kg. The animals are tranquillized using midazolam (I mg/kg i.m.), then anaesthetized with sodium thiopental (8 mg/kg i.v.). The anaesthesia is maintained by a perfusion of 6 to 8 mg/kg/h. They are immediately intubated and ventilated with a mixture of air+O2. A \"T\" thoracotomy is carried out by longitudinal section of the sternum and incision between the 4th and 5th rib. The heart is suspended in a pericardial cradle made by cutting and fixing the pericardium at four points to the thoracic muscles. An electromagnetic flow ring is placed around the anterior interventricular branch of the left coronary, and a small pneumatic balloon is placed immediately downstream of that ring. This assembly is for the purpose of effecting coronary stenosis by controlling the flow. Piezoelectric crystals connected to a Triton sonomicrometer are implanted in the lower endocardium of the left ventricular wall according to a circumferential plane perpendicular to the cardiac axis. These crystals are for recording the regional myocardial contractility and endocardial ECGs in the area supplied by the stenosed coronary artery. Epicardial ECGs are also recorded in those areas by means of electrodes fixed to the myocardium. Myocardial ischaemia is effected by inflating the small balloon which induces a reduction in flow of 50 to 60 Two identical 3 minute stenoses with reproducible and reversible effects are carried out, separated by a recovery period of 55 minutes. The treatment is administered by five minutes' perfusion by the venous route 10 minutes before the stenosis perfusion of solvent before first stenosis perfusion of the compound or solvent before the second stenosis. The regional myocardial contractility is determined by the fraction of systolic shortening of the segment lengths comprised between the piezoelectric crystals. The hypokinesis in the ischaemic zone is expressed as a percentage variation in relation to the contractility measured in the control period. The modification of the epicardial and endocardial ECGs in the ischaemic zone consists in a superelevation of the segment S.T. measured in millivolts (mV)."}, "[4]": {"test_system": "rat aorta", "assay": "Study on isolated vessels: vascular relaxing effect on a rat aorta contracted by potassium (80 mM)", "design": "species or system Wistar rat", "settings": "rat aorta rings without endothelium contracted by potassium (80 mM)", "description": "The thoracic aorta of Wistar rats (325-375 g) that have been anaesthetized by the intraperitoneal route with sodium pentobarbital (30 mg/kg) is removed and dissected into rings 3 mm in length; the endothelium is removed by gentle abrasion using a piece of wood. Each ring is connected to a Statham pressure sensor (UC2-Gould). The initial pressure applied is 2.5 g. The physiological solution used, maintained at 37° C., has the following composition (mM): NaCl 112; KCl 5; KH2 PO4 1; MgSO4 1.2; CaCl2 2.5; NaHCO3 25; glucose 11.; EDTA 0.026. After a stabilization period of 90 minutes, the aorta rings are subjected to a hyperpotassic medium (80 MM KCl and 37 mM NaCl). When the contraction is stable, cumulative concentrations of compound are added to the medium every 15 minutes. The relaxation values obtained enable calculation of the IC50."}, "[5]": {"test_system": "human LDLs", "assay": "Modification of human LDLs by copper sulphate (lipid peroxidation, MDA production)", "format": "biochemical", "settings": "copper sulphate 5×10^-6 M, 24 hours; read-out: IC50, inhibition of copper-induced modification (MDA production) of human LDLs", "description": "Human LDLs are incubated for 24 hours in the presence of copper sulphate (5×10^-6 M) and in the absence or presence of the compounds tested (10^-7 M to 10^-4 M). After incubation, the peroxidation of the LDLs is evaluated by electrophoresis on agar gel and by the formation of one of the products of lipid peroxidation malonic dialdehyde (MDA), (Parthasarathy S., Young S. G., Witztum J. L., Pittman R. C. and Steinberg, D.; J. Clin. invest. 77; 641-644, 1986).\nThe activity of the tested compounds is evaluated by calculating those concentrations (IC50) that reduce the production of MDA by 50% compared with control experiments in the absence of the tested compound."}, "[6]": {"settings": "1 mg/kg intravenous before second stenosis, compared with first stenosis"}}, "data": [{"smiles": "COc1ccc(CN2CCN(CCCCCOc3cc(C)c(O)c(C)c3C)CC2)c(OC)c1OC", "note": "[Example 10, 4-(2,3,4-trimethoxybenzyl)-l-[5-(4-hydroxy-2,3,5-trimethylphenoxy)pentyl]piperazine]", "values": [{"measurement": "activity at 10 µM", "setting": "[1]; 10^-5 M, XO + HX, control XO + HX = 100.0, read-out: necrosis index of cardiac cells, XO + HX, compound 10^-5 M", "result": "12.6 ± 1.3", "unit": "%"}, {"measurement": "activity at 1 µM", "setting": "[1]; 10^-6 M, XO + HX, control XO + HX = 100.0, read-out: necrosis index of cardiac cells, XO + HX, compound 10^-6 M", "result": "18.8 ± 3.7", "unit": "%"}, {"measurement": "activity at 0.1 µM", "setting": "[1]; 10^-7 M, XO + HX, control XO + HX = 100.0, read-out: necrosis index of cardiac cells, XO + HX, compound 10^-7 M", "result": "88.8 ± 0.4", "unit": "%"}, {"measurement": "minimal effective concentration", "setting": "[1]; XO + HX induced oxidative necrosis, read-out: concentration at which compounds prove to be protective against necrosis", "result": "≥ 0.1", "unit": "µM"}, {"measurement": "functional recovery of the hearts during reoxygenation", "setting": "[2]; Example 1 at 3×10^-7 M, 10 at 10^-7 M, 13 at 7×10^-7 M, 40% in the control experiments", "result": "more than 70%"}, {"measurement": "reduction of the developing contracture at the end of 30 minutes reoxygenation", "setting": "[2]; end of 30 min reoxygenation, Example 1 at 3×10^-7 M, 10 at 10^-7 M, 13 at 7×10^-7 M, vs control", "result": "more than 70%"}, {"measurement": "Contracture, hypoxia 10 min", "setting": "[2]; hypoxia 10 min, Example 1 at 3 × 10^-7 M, Example 10 at 10^-7 M, Example 13 at 7 × 10^-7 M, control 23.7 ± 6.8", "result": "15.3 ± 3.7", "unit": "mm Hg"}, {"measurement": "Contracture, hypoxia 30 min", "setting": "[2]; hypoxia 30 min, Example 1 at 3 × 10^-7 M, Example 10 at 10^-7 M, Example 13 at 7 × 10^-7 M, control 33.7 ± 8.9", "result": "16.0 ± 6.4", "unit": "mm Hg"}, {"measurement": "Contracture, hypoxia 60 min", "setting": "[2]; hypoxia 60 min, Example 1 at 3 × 10^-7 M, Example 10 at 10^-7 M, Example 13 at 7 × 10^-7 M, control 32.3 ± 7.4", "result": "14.7 ± 4.4", "unit": "mm Hg"}, {"measurement": "Contracture, reoxygenation 15 min", "setting": "[2]; reoxygenation 15 min, Example 1 at 3 × 10^-7 M, Example 10 at 10^-7 M, Example 13 at 7 × 10^-7 M, control 20.6 ± 7.8", "result": "7.3 ± 5.5", "unit": "mm Hg"}, {"measurement": "Contracture, reoxygenation 30 min", "setting": "[2]; reoxygenation 30 min, Example 1 at 3 × 10^-7 M, Example 10 at 10^-7 M, Example 13 at 7 × 10^-7 M, control 12.3 ± 6.1", "result": "2.7 ± 2.7", "unit": "mm Hg"}, {"measurement": "ST superelevation, endocardial ECG, second stenosis (ST2)", "setting": "[3]; 1 mg/kg i.v. before second stenosis, ST1 (solvent) of same group 3.4 ± 0.4, control ST2 2.4 ± 0.51", "result": "1.9 ± 0.5", "unit": "mV"}, {"measurement": "ST superelevation, epicardial ECG, second stenosis (ST2)", "setting": "[3]; 1 mg/kg i.v. before second stenosis, ST1 (solvent) of same group 4.6 ± 1.0, control ST2 3.16 ± 1.2", "result": "2.5 ± 0.6", "unit": "mV"}, {"measurement": "% residual myocardial contractility, second stenosis (ST2)", "setting": "[3]; 1 mg/kg i.v. before second stenosis, ST1 (solvent) of same group 20.4 ± 3.3, control ST2 25.2 ± 3.0", "result": "29.4 ± 2.6", "unit": "%"}, {"measurement": "improvement in the regional contractility in the ischaemic zone", "setting": "[3]; [6]", "result": 50, "unit": "%"}, {"measurement": "reduction of the superelevation of the segment ST, endocardial electrocardiogram", "setting": "[3]; [6]", "result": 45, "unit": "%"}, {"measurement": "reduction of the superelevation of the segment ST, epicardial electrocardiogram", "setting": "[3]; [6]", "result": 45, "unit": "%"}, {"measurement": "IC50", "setting": "[4]", "result": 2000, "unit": "nM"}, {"measurement": "IC50", "setting": "[5]", "result": 30, "unit": "nM"}]}]}
